Data: patent US20260042764A1, “COMPOSITIONS AND METHODS FOR INHIBITION OF KRAS” (TheRas, Inc., priority 2022, published 2026)

Columns and labels:
[1] = tested on: H358 cells (KRAS G12C); assay: Cell-based pERK HTRF assay in H358 cells (Biological Example 5)
Experimental: (§1) Biological Example 5: Cell-based PERK HTRF assay in AsPC-1, SW1900, HPAC, Capan-2, RKN, H358, HCT116, KP-2, H1573, A549, MKN1, and HT1080 cells
(§2) The inhibition of ERK phosphorylation, as measured using the HTRF Advanced Phospho-ERK 1/2 (Thr202/Tyr204) Detection Assay kit (Perkin Elmer), was used to determine the effectiveness of test compounds in disrupting KRAS-driven protein/effector signaling in cells.
(§3) On day 1, cells were seeded into 96-well plates at 2.5×10^4 cells/well in 100 μL of complete growth media supplemented with 10% fetal bovine serum (FBS) and incubated at 37° C., in the presence of 5% CO2.
(§4) On day 2, cells were treated with compounds diluted in DMSO at 0.25% final DMSO concentration. Compounds were dosed in a 9-point concentration curve with three-fold dilution between concentrations. Cells were incubated in the presence of compound for two hours at 37° C. Following this treatment period, cells were harvested by aspirating the media, adding 40 μL of kit-supplied 1x lysis buffer per well, and shaking for 30 minutes at 250 rpm at room temperature.
(§5) Following cell lysis, samples were homogenized by pipetting up and down twenty times and 16 μL of cell lysate per well was transferred from the 96-well cell culture plate to two wells of a 384-well detection plate. A complete detection buffer was prepared by diluting D2 and Eu Cryptate antibodies 1:20 in kit-provided detection solution, 4 μL of complete detection buffer was then added to each well with lysate. Plates were incubated with gentle rocking for 24 hours at 4° C.
(§6) Following this incubation period, plates were centrifuged at 500×g for one minute and analyzed on a CLARIOstar plate reader. Data was imported into Microsoft Excel and the signal from the 665 nm channel was divided by the signal from the 620 nm channel. % pERK was calculated as: […]
(§7) Data was imported to the Prism software package (Graphpad) and EC50 values were calculated using the log (inhibitor) vs, response—variable slopc (Four parameters) model.

[2] = tested on: HPAC cells (KRAS G12D); assay: 3D Cell viability assay in HPAC cells (Biological Example 6); format: cell-based; settings: HPAC (KRAS G12D) spheroids
Experimental: (§8) Biological Example 6: 3D Cell viability assay in AsPC-1, SW1900, HPAC, Capan-2, RKN, H358, HCT116, KP-2, H1573, A549, MKN1, and HT1080 cells
(§9) The inhibition of cellular viability as a result of test compound treatment in a spheroid assay was measured using the CellTiter-Glow 3D Cell Viability Assay (Promega).
(§10) On Day 1, 1000 cells per well were seeded in 150 μL of complete growth media supplemented with 10% fetal bovine serum (FBS) and incubated at 37° C., in the presence of 5% CO2 in 96-well ultra-low attachment microplates (Corning) for 48 hours undisturbed to allow spheroids to form.
(§11) Following spheroid formation, cells were treated with compounds diluted in DMSO at 0.25% final DMSO concentration. Compounds were dosed in a 9-point concentration curve with three-fold dilution between concentrations. Cells were incubated in the presence of compound for 72 hours at 37° C., in the presence of 5% CO2.
(§12) Following this incubation period, the kit-provided CTG reagent was allowed to equilibrate for 30 minutes at room temperature, 150 μL of equilibrated CTG reagent was added to each well, and the plate was sealed before shaking at 250 rpm for 10 minutes at room temperature to lyse the cells, 150 μL of lysate per well was transferred to a 96-well plate and luminescence was read on a CLARIOstar plate reader.
(§13) Data was imported into the Prism software package (Graphpad) and EC50 values were calculated using the log (inhibitor) vs, response—variable slope (Four parameters) model.

[3] = tested on: AsPC-1 cells (KRAS G12D); assay: 3D Cell viability assay in AsPC-1 cells (Biological Example 6); format: cell-based; settings: AsPC-1 (KRAS G12D) spheroids, 72 hours
Experimental: as §8, §9, §10, §11, §12, §13

[4] = target: T1, Avi-KRAS G12C (2-169) GTP/RAF1 RBD-3xFLAG (51-131) (Homo sapiens, UniProt P01116, G12C); assay: Raf1-KRAS G12C-GTP disruption HTRF assay (Biological Example 3); format: binding; settings: KRAS G12C, GTP-loaded
T1 construct: Avi-KRAS G12C (2-169)
T1 sequence (P01116 2-169 isoform P01116-2 G12C): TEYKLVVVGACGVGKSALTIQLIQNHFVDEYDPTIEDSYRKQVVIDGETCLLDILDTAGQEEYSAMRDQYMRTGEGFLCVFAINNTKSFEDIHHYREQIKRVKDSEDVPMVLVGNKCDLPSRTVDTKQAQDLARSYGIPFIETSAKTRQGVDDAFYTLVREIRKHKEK
Summary of the method: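 HTRF PPI read-out (ex 320 nm, em 615 nm) after 1 h RT incubation with shaking; data as % activity vs DMSO (100%), IC50 from curve fit. Complex 50 nM, RBD reagent 75 nM; compound 30-0.005 μM, 3-fold.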

[5] = tested on: RKN cells (KRAS G12V); assay: Cell-based pERK HTRF assay in RKN cells (Biological Example 5)
Experimental: as §1, §2, §3, §4, §5, §6, §7

[6] = tested on: H358 cells (KRAS G12C); assay: 3D Cell viability assay in H358 cells (Biological Example 6); format: cell-based; settings: H358 (KRAS G12C) spheroids, 72 hours
Experimental: as §8, §9, §10, §11, §12, §13

[7] = Homo sapiens, NCI-H358, H358 (KRAS G12C) cells

Row | Structure (SMILES) | IC50 [1, 7] | IC50 ([3]; Homo sapiens, ASPC1) | IC50 [4] | IC50 [5] | IC50 ([6]; Homo sapiens, NCI-H358) | IC50 ([1]; H358 (KRAS G12C) cells) | IC50 [3] | IC50 [6] | IC50 ([2]; Homo sapiens, HPAC, 72 h) | IC50 ([2]; 72 hours)
1 | N#Cc1c(N)sc2c(F)ccc(-c3c(C(F)(F)F)cc4c(N5CC6CC(C5)O6)nc(OC[C@@]56CCCN5C[C@H](F)C6)nc4c3F)c12 (single isomer, unassigned) [Compound 275] | ≤ 100 nM | > 1000 nM |  | ≤ 100 nM | ≤ 100 nM |  |  |  | > 1000 nM | 
2 | CCN(c1nc(OC[C@@]23CCCN2C[C@H](F)C3)nc2c(F)c(-c3ccc(F)c4sc(N)c(C#N)c34)c(C(F)(F)F)cc12)[C@H]1CCN(C(=O)c2ncco2)C1 (atropisomer, axis not shown) [Compound 584] | ≤ 100 nM | ≤ 100 nM |  | ≤ 100 nM | ≤ 100 nM |  |  |  | ≤ 100 nM | 
3 | CCN(c1nc(OC[C@@]23CCCN2C[C@H](F)C3)nc2c(F)c(-c3ccc(F)c4sc(N)c(C#N)c34)c(C(F)(F)F)cc12)[C@H]1C[C@H](C)N(C(=O)N2CC(OC)C2)C1 (atropisomer, axis not shown) [Compound 764] | ≤ 100 nM | ≤ 100 nM | 100 to 1000 nM | ≤ 100 nM | ≤ 100 nM |  |  |  | > 1000 nM | 
4 | CCN(c1nc(OC[C@@]23CCCN2C[C@H](F)C3)nc2c(F)c(-c3ccc(F)c4sc(N)c(C#N)c34)c(C(F)(F)F)cc12)[C@H]1CC(=O)N2CCC[C@@H]12 (atropisomer, axis not shown; (aS)) [Compound 697, 2-amino-4-((S)-4-(ethyl((1S,7aS)-3-oxohexahydro-1H-pyrrolizin-1-yl)amino)-8-fluoro-2-(((2R,7aS)-2-fluorotetrahydro-1H-pyrrolizin-7a(5H)-yl)methoxy)-6-(trifluoromethyl)quinazolin-7-yl)-7-fluorobenzo[b]thiophene-3-carbonitrile] | ≤ 100 nM | ≤ 100 nM | ≤ 100 nM | ≤ 100 nM | ≤ 100 nM |  |  |  | ≤ 100 nM | 
5 | Cc1c(C(=O)N(C)C)nn2c1CN(c1nc(OC[C@@]34CCCN3C[C@H](F)C4)nc3c(F)c(-c4ccc(F)c5sc(N)c(C#N)c45)c(C(F)(F)F)cc13)CC2 (atropisomer, axis not shown; (aS)) [Compound 590, 5-((S)-7-(2-amino-3-cyano-7-fluorobenzo[b]thiophen-4-yl)-8-fluoro-2-(((2R,7aS)-2-fluorotetrahydro-1H-pyrrolizin-7a(5H)-yl)methoxy)-6-(trifluoromethyl)quinazolin-4-yl)-N,N,3-trimethyl-4,5,6,7-tetrahydropyrazolo[1,5-a]pyrazine-2-carboxamide] |  |  |  | ≤ 100 nM |  | ≤ 100 nM | ≤ 100 nM | ≤ 100 nM |  | ≤ 100 nM
6 | C/C=C/C(=O)N1CC[C@H](N(CC)c2nc(OC[C@@]34CCCN3C[C@H](F)C4)nc3c(F)c(-c4ccc(F)c5sc(N)c(C#N)c45)c(C(F)(F)F)cc23)C1 (atropisomer, axis not shown) [Compound 674] | ≤ 100 nM | ≤ 100 nM | ≤ 100 nM | ≤ 100 nM | ≤ 100 nM |  |  |  | ≤ 100 nM | 

Second part, led by results:

Row | IC50 [1, 7] | IC50 ([3]; Homo sapiens, ASPC1) | IC50 [4] | IC50 [5] | IC50 ([6]; Homo sapiens, NCI-H358) | IC50 ([1]; H358 (KRAS G12C) cells) | IC50 [3] | IC50 [6] | Structure (SMILES) | IC50 ([2]; Homo sapiens, HPAC, 72 h) | IC50 ([2]; 72 hours)
7 | ≤ 100 nM | ≤ 100 nM | 100 to 1000 nM | ≤ 100 nM | ≤ 100 nM |  |  |  | C[C@H]1Cn2nc(C(=O)N(C)C)cc2CN1c1nc(OC[C@@]23CCCN2C[C@H](F)C3)nc2c(F)c(-c3ccc(F)c4sc(N)c(C#N)c34)c(C(F)(F)F)cc12 (atropisomer, axis not shown) [Compound 610] | 100 to 1000 nM | 
8 | ≤ 100 nM | ≤ 100 nM | ≤ 100 nM | ≤ 100 nM | ≤ 100 nM |  |  |  | CCN(c1nc(OC[C@@]23CCCN2C[C@H](F)C3)nc2c(F)c(-c3ccc(F)c4sc(N)c(C#N)c34)c(C(F)(F)F)cc12)[C@H]1CCN(C(=O)N2CC(F)C2)C1 (atropisomer, axis not shown) [Compound 606] | 100 to 1000 nM | 
9 |  | ≤ 100 nM |  | ≤ 100 nM | ≤ 100 nM | ≤ 100 nM |  |  | CCN(c1nc(OC[C@@]23CCCN2C[C@H](F)C3)nc2c(F)c(-c3ccc(F)c4sc(N)c(C#N)c34)c(C(F)(F)F)cc12)[C@H]1CCN(C(=O)C(C)C)C1 [Compound 332] | 100 to 1000 nM | 
10 | ≤ 100 nM | ≤ 100 nM |  | ≤ 100 nM | ≤ 100 nM |  |  |  | CCN(c1nc(OC[C@@]23CCCN2C[C@H](F)C3)nc2c(F)c(-c3ccc(F)c4sc(N)c(C#N)c34)c(C(F)(F)F)cc12)[C@H]1C[C@H](C)N(C(=O)[C@@H]2CC2(F)F)C1 (atropisomer, axis not shown) [Compound 751] | ≤ 100 nM | 
11 | ≤ 100 nM | ≤ 100 nM |  | ≤ 100 nM | ≤ 100 nM |  |  |  | CCN(c1nc(OC[C@@]23CCCN2C[C@H](F)C3)nc2c(F)c(-c3ccc(F)c4sc(N)c(C#N)c34)c(C(F)(F)F)cc12)[C@@H]1CCN(C(C)=O)C1 [Compound 268] | ≤ 100 nM | 
12 |  |  | 100 to 1000 nM | ≤ 100 nM |  | ≤ 100 nM | ≤ 100 nM | ≤ 100 nM | CCN(c1nc(OCC23CCCN2CC(F)C3)nc2c(F)c(-c3ccc(F)c4sc(N)c(C#N)c34)c(C(F)(F)F)cc12)C1CC(C)N(C(=O)C2CC2(F)F)C1 (stereo not drawn) [Compound 732] |  | ≤ 100 nM
